pIC50: −log10 of the molar value.
Experiments:
Type in all cases: cell-based
HL60 cells = assay: Leukemia cell proliferation, HL60; conditions: 72 hrs
Procedure: (§1) 2,000 cells from indicated NSLC cell lines were seeded into each well of 96-well plates. Cell viability was measured 3 days post-treatment using MTT assays following manufacturer's instruction. For cell viability assays with inhibitor treatment, 2,000 cells from indicated NSLC and HEK293 cell lines were seeded in 96-well plate. Inhibitor was added the next day at indicated concentration and cell viability was measured after 3-day treatment. For cell proliferation assays in THP1, K562 and HL60 cell lines, 1×10^6 cells from each indicated cell line were seeded in 12.5 cm2 cell culture flask and cells were counted by hemocytometer under microscope at indicated time to monitor cell proliferation. To test inhibitor effects on THP1, K562 and HL60 cell growth, 2×10^5 cells were seeded in 12.5 cm2 cell culture flask. Inhibitor was added the next day at indicated concentrations and cell number was counted after 3 days treatment. Three independent experiments were performed to generate error bars.

OTUD7B = OTUD7B protein levels by immunoblot; conditions: 16 hrs
Procedure: (§2) Cells were harvested and lysed in EBC buffer (50 mM Tris pH 7.5, 120 mM NaCl, 0.5% NP-40) supplemented with protease inhibitor cocktail (EDTA-free, mini-tablet) (Bimake) and phosphatase inhibitor cocktail (Bimake) by rotating in the cold room for 10 min followed by high-speed centrifugation at 4° C. The protein concentrations in supernatants of whole cell lysates were measured by NanoDrop OneC using the Bio-Rad Bradford protein assay reagent. Equal amounts of whole cell lysates were resolved on SDS-PAGE and immunoblotted with indicated antibodies. For immunoprecipitation analysis, 1 mg of total cell lysate was incubated with the indicated beads for 3-4 hr at 4° C. The recovered immuno-complexes were washed thoroughly three times with NETN buffer (20 mM Tris, pH 8.0, 100 mM NaCl, 1 mM EDTA and 0.5% NP-40) before being resuspended in SDS sample buffer and resolved on SDS-PAGE and immunoblotted with indicated antibodies.

H1299 cells = assay: Colony formation / growth of H1299 cells; conditions: treated once for 10 days
Procedure: 500 cells from OTUD7B depleted A549 cells were seeded into each well of 6-well plates and cultured in the 37° C. incubator with 5% CO2 for 10-15 days until formation of visible colonies. Triplicates were performed. To test the effect of a given inhibitor on colony formation ability, 800 cells from A549, H520 and H1299 cell lines were seeded into each well of 6-well plates, respectively. Each inhibitor was added at indicated concentration the next day. Colonies were counted after 10 days of treatment. The colony staining method was as described. […] Colony numbers were counted manually. […]
as §1, with “For cell viability assays with inhibitor treatment, 2,000 cells from indicated NSLC and HEK293 cell lines were seeded in 96-well plate.” left out, “To test inhibitor effects on THP1, K562 and HL60 cell growth, 2×10^5 cells were seeded in 12.5 cm2 cell culture flask.” left out, “Three independent experiments were performed to generate error bars.” left out

[1] = system: K63-linked ubiquitination of GβL; assay: Endogenous K63-linked GβL ubiquitination (GβL-IP); conditions: 16 hrs
Procedure: as §2

Akt-pS473 = Akt-pS473 western blotting in NSCLC cells (A549, H358, H520, H1299)
Procedure: as §2
Next, we used two approaches to search for possible OTUD7B inhibitors by monitoring Akt-pS473 changes including Akt-pS473 ELISA and western blotting in A549 cells treated with each of these 59 small molecules for 16 hrs at a concentration of 10 uM (FIG. 1A). In Akt-pS473 ELISA assays using Torin 2 (a pan-mTOR inhibitor) as a positive control and DMSO as a negative control (FIG. 1E), we found 15 compounds with an inhibitory ability above 30% (FIG. 1F). […]

HEK293 cells = assay: Cell viability by MTT assay in HEK293 cells; conditions: 72 hrs
Procedure: as §1

Cc1cc(NC(=O)c2cnn(C)c2C(=O)Nc2cc(C)nn2C2CCCC2)n(C2CCCC2)n1 [7Bi]
cell proliferation (HL60 cells): reduced proliferation | OTUD7B protein levels (OTUD7B; A549 cells): did not significantly affect OTUD7B protein levels | OTUD7B protein levels (OTUD7B; HEK293 cells): did not significantly affect OTUD7B protein levels | cell growth (H1299 cells): reduced growth | K63-linked ubiquitination of GβL at endogenous levels ([1]; A549 cells): increased K63-linked ubiquitination of GβL at endogenous levels | K63-linked GβL ubiquitination at endogenous levels ([1]; K562 cells): increased K63-linked GβL ubiquitination at endogenous levels | suppressing Akt-pS473 signal in at least 3 out of 4 NSCLC lines tested (Akt-pS473; A549, H358, H520, H1299, 10 uM for 16 hrs, dose- and time-dependent): showed effects in suppressing Akt-pS473 signal | pIC50 (Akt-pS473; NSCLC cells, read-out: IC50 values to inhibit Akt-pS473 signals): 5.00 to 6.00 | cell growth (MTT) (HEK293 cells): reduced growth
